This note sets out measurements from ChEMBL document CHEMBL5137025, “Tuberculosis Drug Discovery: Challenges and New Horizons” (J Med Chem, 2022).

Usually MIC99 stands for the lowest concentration that inhibits either 99% of growth or 99% of the strains tested, depending on the study.

Converted amounts (≈) assume the structure as drawn.

This test concerns Mycobacterium tuberculosis variant bovis. The experiment in a line: Antibacterial activity against Mycobacterium bovis BCG assessed as inhibition of bacterial growth incubated for 4 to 7 days. The format is functional. Particulars: time 4-7 day.

Regarding `Nc1nc(N)c(N=O)c(OCC2CCCCC2)n1`, the MIC99 was 1.6 µM (≈ 0.402 µg/mL).
